Measured values from PMC4431182 (2015).

Experiments:
Experiment in all cases: electrochemical aptamer-based sensor, square wave voltammetry
[1] = system: 3-UAC (RNA, aptamer) CUUGGUUUAGGUAAUGAGUAC; details: Na+ 100 mM, Mg2+ 5 mM; 20 mM Tris, pH 7.4; surface-immobilised aptamer; apparent
[2] = system: 7UC (RNA, aptamer) CUUGGUCUAGGUAAUGAG; details: Na+ 100 mM, Mg2+ 5 mM; 20 mM Tris, pH 7.4; surface-immobilised aptamer; no quantitative binding, 3% signal change at 30 µM tobramycin
[3] = system: High-Gain Parent (RNA, aptamer) CUUGGUUUAGGUAAUGAG; details: Na+ 100 mM, Mg2+ 5 mM; 20 mM Tris, pH 7.4; surface-immobilised aptamer; apparent
[4] = system: 7UG (RNA, aptamer) CUUGGUGUAGGUAAUGAG; details: Na+ 100 mM, Mg2+ 5 mM; 20 mM Tris, pH 7.4; surface-immobilised aptamer; no quantitative binding, -9% signal change at 30 µM tobramycin
[5] = system: 16GU (RNA, aptamer) CUUGGUUUAGGUAAUUAG; details: Na+ 100 mM, Mg2+ 5 mM; 20 mM Tris, pH 7.4; surface-immobilised aptamer; apparent

Kd [1]: 170 ± 30 nM
binding [2]: no
KD [3]: 80 ± 10 nM
binding [4]: no
Kd [5]: 3000 ± 400 nM
Compound: NC[C@H]1O[C@H](O[C@H]2[C@H](O)[C@@H](O[C@H]3O[C@H](CO)[C@@H](O)[C@H](N)[C@H]3O)[C@H](N)C[C@@H]2N)[C@H](N)C[C@@H]1O
